Assay results from PubChem BioAssay (NCI).
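At the GI50, growth is halved. TGI: concentration producing complete growth inhibition.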

Experiments:
Assay in all cases: NCI anticancer screen, dose series, 384-well format
[1] = test system: SK-MEL-28 melanoma
[2] = test system: ACHN renal
[3] = test system: HOP-62 NSCLC
[4] = test system: SNB-75 CNS
[5] = test system: KM12 colon
[6] = test system: IGROV1 ovarian
[7] = test system: A549 NSCLC
[8] = test system: PC-3 prostate
[9] = test system: SF-295 CNS
[10] = test system: NCI-H226 lung
[11] = test system: UACC-62 melanoma
[12] = test system: MOLT-4 leukemia
[13] = test system: 786-0 renal
[14] = test system: EKVX NSCLC
[15] = test system: OVCAR-8 ovarian
[16] = test system: NCI/ADR-RES ovarian
[17] = test system: MDA-MB-231 breast
[18] = test system: HOP-92 NSCLC
[19] = test system: SNB-19 CNS
[20] = test system: OVCAR-4 ovarian
[21] = test system: CAKI-1 renal
[22] = test system: MALME-3M melanoma
[23] = test system: MCF7 breast
[24] = test system: T-47D breast
[25] = test system: SK-MEL-5 melanoma
[26] = test system: SF-268 CNS
[27] = test system: U251 glioblastoma
[28] = test system: SN12C renal
[29] = test system: OVCAR-5 ovarian
[30] = test system: RXF 393 renal
[31] = test system: HT29 colon
[32] = test system: DU-145 prostate
[33] = test system: NCI-H322M lung
[34] = test system: MDA-MB-435 melanoma
[35] = test system: HCT-116 colon
[36] = test system: SK-OV-3 ovarian
[37] = test system: HS 578T breast
[38] = test system: BT-549 breast
[39] = test system: UO-31 renal
[40] = test system: NCI-H23 lung
[41] = test system: LOX IMVI melanoma
[42] = test system: SF-539 CNS
[43] = test system: HCC-2998 colon
[44] = test system: A498 renal
[45] = test system: NCI-H522 lung
[46] = test system: K-562 leukemia
[47] = test system: COLO 205 colon
[48] = test system: M14 melanoma
[49] = test system: OVCAR-3 ovarian
[50] = test system: RPMI-8226 leukemia
[51] = test system: TK-10 renal
[52] = test system: MDA-MB-468 breast
[53] = test system: HCT-15 colon
[54] = test system: UACC-257 melanoma
[55] = test system: SW-620 colon

Work on Cc1c(NC(=O)OC[C@@H]2COCCN2)cn2ncnc(Nc3ccc4c(cnn4Cc4cccc(F)c4)c3)c12 yielded a GI50 [1] of 2.15 µM, a TGI [1] of 4.05 µM and a GI50 [2] of 0.815 µM. The TGI [2] was 12.7 µM, the GI50 [3] was 2.01 µM and the TGI [3] was 9.3 µM. For the same compound, the GI50 [4] was 2.96 µM, the TGI [4] was 9 µM and the GI50 [5] was 3.74 µM. It also gave a TGI [5] of 13.5 µM, a GI50 [6] of 0.0935 µM and a TGI [6] of 4.96 µM. It also gave a GI50 [7] of 2.82 µM, a TGI [7] of 13.6 µM and a GI50 [8] of 3 µM. For the same compound, the TGI [8] was 7.88 µM, the GI50 [9] was 2.28 µM and the TGI [9] was 4.89 µM. It also gave a GI50 [10] of 5.08 µM, a TGI [10] of 18.1 µM and a GI50 [11] of 1.91 µM. For the same compound, the TGI [11] was 3.56 µM, the GI50 [12] was 1.69 µM and the TGI [12] was 3.35 µM. It also gave a GI50 [13] of 1.42 µM, a TGI [13] of 2.91 µM and a GI50 [14] of 1.02 µM. It also gave a TGI [14] of 5.16 µM, a GI50 [15] of 4.46 µM and a TGI [15] of 16.2 µM. The GI50 [16] was 12.6 µM, the TGI [16] was 25.2 µM and the GI50 [17] was 1.92 µM. For the same compound, the TGI [17] was 4.65 µM, the GI50 [18] was 2.46 µM and the TGI [18] was 9.57 µM. The GI50 [19] was 3.72 µM, the TGI [19] was 13.8 µM and the GI50 [20] was 3.75 µM. The TGI [20] was 12.4 µM, the GI50 [21] was 1.9 µM and the TGI [21] was 14.3 µM. For the same compound, the GI50 [22] was 2.23 µM, the TGI [22] was 4.77 µM and the GI50 [23] was 3 µM. The TGI [23] was 10.4 µM, the GI50 [24] was 0.0467 µM and the TGI [24] was 1.06 µM. For the same compound, the GI50 [25] was 1.51 µM, the TGI [25] was 2.9 µM and the GI50 [26] was 0.943 µM. It also gave a TGI [26] of 3.78 µM, a GI50 [27] of 1.91 µM and a TGI [27] of 3.54 µM. For the same compound, the GI50 [28] was 1.96 µM, the TGI [28] was 14.4 µM and the GI50 [29] was 3.37 µM. It also gave a TGI [29] of 16.1 µM, a GI50 [30] of 1.67 µM and a TGI [30] of 3.34 µM. The GI50 [31] was 1.81 µM, the TGI [31] was 3.47 µM and the GI50 [32] was 2.44 µM. It also gave a TGI [32] of 13.6 µM, a GI50 [33] of 0.363 µM and a TGI [33] of 11.1 µM. The GI50 [34] was 4.66 µM, the TGI [34] was 13.3 µM and the GI50 [35] was 2.35 µM. The TGI [35] was 4.88 µM, the GI50 [36] was 1.77 µM and the TGI [36] was 5.72 µM. It also gave a GI50 [37] of 2.33 µM, a TGI [37] of 5.32 µM and a GI50 [38] of 2.03 µM. The TGI [38] was 4.36 µM, the GI50 [39] was 1.47 µM and the TGI [39] was 3.73 µM. For the same compound, the GI50 [40] was 3.6 µM, the TGI [40] was 12.4 µM and the GI50 [41] was 1.7 µM. For the same compound, the TGI [41] was 3.2 µM, the GI50 [42] was 1.95 µM and the TGI [42] was 3.86 µM. It also gave a GI50 [43] of 1.66 µM, a TGI [43] of 3.61 µM and a GI50 [44] of 1.4 µM. It also gave a TGI [44] of 3.24 µM, a GI50 [45] of 0.255 µM and a TGI [45] of 3.82 µM. For the same compound, the GI50 [46] was 1.79 µM, the TGI [46] was 3.32 µM and the GI50 [47] was 2.96 µM. The TGI [47] was 7.54 µM, the GI50 [48] was 2.08 µM and the TGI [48] was 4.29 µM. It also gave a GI50 [49] of 2.67 µM, a TGI [49] of 9.15 µM and a GI50 [50] of 2.29 µM. It also gave a TGI [50] of 4.19 µM, a GI50 [51] of 0.661 µM and a TGI [51] of 3.48 µM. The GI50 [52] was 0.0222 µM, the TGI [52] was 0.0701 µM and the GI50 [53] was 2.19 µM. It also gave a TGI [53] of 5.47 µM, a GI50 [54] of 2.03 µM and a TGI [54] of 3.98 µM. For the same compound, the GI50 [55] was 3.8 µM and the TGI [55] was 12 µM.
